According to patent US20050222106A1, “Drospirenone-containing preparations for transdermal use” (priority 2004, published 2005):
Entries after “also recorded” stand apart in the source; their conditions may differ.

Tests used:
[1] = Permeation through human skin from the preparation of Example 1; type: in vitro ADME
Method: (§1) 200 mg of the preparation made according to Example 1 were applied to bare mouse skin, which were fixed in modified Franz permeation cells as a permeation membrane. The results for the average permeation values for testosterone and drospirenone in μg/cm^2 versus time after application are shown in FIG. 1. The average values are the average of seven experimental runs. The mouse skin used was hairless mouse skin, HsdCpb NMRI-nu/nu, Harlan Bioservice, Walsrode.
(§2) Acceptable Medium for the Franz Cells:
(§3) At 3, 6, 9, 12, 15 and 18 hours samples of 100 μl were removed by an automatic sampling system from the acceptor medium of the Franz cells and injected into an HPLC automatic analyzer.
The preparation from example 1 was tested on human skin (female belly skin from cosmetic reduction, dermatomized at a layer thickness of about 450 μm).
The skin permeation values or mass transport amount for drospirenone and testosterone as a function of time after application of the preparation to the skin are shown in FIG. 2. The open squares indicate the measured permeation values for testosterone in […]. The open circles indicate the permeation values for drospirenone. The vertical lines on the circles and squares are error bars indicating the experimental error.

[2] = Permeation of bare mouse skin in modified Franz permeation cells; type: in vitro ADME; conditions: aqueous ethanolic vehicle (preparation of Example 1, 200 mg), FIG. 1, average of seven runs
Method: as §1, §2, §3
The filled-in circles indicate the measured permeation values for testosterone in FIG. 1. The filled-in squares indicate the permeation values for drospirenone. The vertical lines on the circles and squares are error bars indicating the experimental error.

Structure (SMILES) | Permeation values relative to those of testosterone ([1]; female, human) | Mean cumulative Transport ([1]; female, human, 0 h) [μg/cm^2] | Mean cumulative Transport ([1]; female, human, 3 h) [μg/cm^2] | Mean cumulative Transport ([1]; female, human, 7 h) [μg/cm^2] | Mean cumulative Transport ([1]; female, human, 10 h) [μg/cm^2] | Mean cumulative Transport ([1]; female, human, 24 h) [μg/cm^2] | Mean cumulative Transport ([1]; female, human, 30 h) [μg/cm^2] | Mean cumulative Transport ([1]; female, human, 48 h) [μg/cm^2] | Permeation of mouse skin in vitro compared with testosterone [2] | Mean cumulative Transport ([1]; human skin, preparation of Example 1, time 0 h) [μg/cm^2] | Mean cumulative Transport ([1]; human skin, preparation of Example 1, time 3 h) [μg/cm^2] | Mean cumulative Transport ([1]; human skin, preparation of Example 1, time 7 h) [μg/cm^2] | Mean cumulative Transport ([1]; human skin, preparation of Example 1, time 10 h) [μg/cm^2] | Mean cumulative Transport ([1]; human skin, preparation of Example 1, time 24 h) [μg/cm^2] | Mean cumulative Transport ([1]; human skin, preparation of Example 1, time 30 h) [μg/cm^2] | Mean cumulative Transport ([1]; human skin, preparation of Example 1, time 48 h) [μg/cm^2]
C[C@]12CCC(=O)C=C1[C@@H]1C[C@@H]1[C@H]1[C@@H]3[C@@H]4C[C@@H]4[C@@]4(CCC(=O)O4)[C@@]3(C)CC[C@@H]12 [Drospirenone, drospirenone] | about 40% | 0.00 | 0.87 | 2.04 | 2.86 | 8.67 | 12.13 | 19.23 | approximately the same good extent as testosterone; also recorded: permeation values for testosterone are larger than those for drospirenone |  |  |  |  |  |  | 
C[C@]12CC[C@H]3[C@@H](CCC4=CC(=O)CC[C@@]43C)[C@@H]1CC[C@@H]2O [Testosterone] |  |  |  |  |  |  |  |  |  | 0.00 | 3.62 | 7.72 | 10.70 | 26.57 | 33.31 | 44.35
